Here are results for 32 molecules from EP1285920A1, “C10 Ester sustituted taxanes as antitumor agents” (Florida State University Research Foundation, Inc., priority 2001, dated 2003).

Structures are written as SMILES.

In one test the test system is HCT116. Description: In Vitro cytotoxicity measured by the cell colony formation assay. Format: cell-based, human. Particulars: HCT116 colony formation; 72 h with drug, colonies counted after 7 days; ID50 = concentration producing 50% inhibition of colony formation; read-out: IN VITRO ID 50 HCT116. In outline: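 Four hundred cells per dish in McCoy's 5a medium with 10% FBS were allowed to attach for 5 h at 37 °C. They were then exposed to compound for 72 h at 37 °C, added as a 10× stock made fresh in medium. After HBSS rinsing and refeeding, colonies were counted after 7 days.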
For `CC=CC(=O)NC(c1cccs1)C(O)C(=O)OC1CC2(O)C(OC(=O)c3ccccc3)C3C4(OC(C)=O)COC4CC(O)C3(C)C(=O)C(OC(=O)CCC)C(=C1C)C2(C)C` (centres unmarked) [Compound 3595], the IC50 is < 1 nM.

The test is the same for the next values; noted with them: Homo sapiens, HCT-116; read-out: IN VITRO ID 50 HCT116.
As for `CCC(=O)O[C@H]1C(=O)[C@@]2(C)[C@H]([C@H](OC(=O)c3ccccc3)[C@]3(O)C[C@H](OC(=O)[C@H](O)[C@@H](NC(=O)c4cccs4)c4cccs4)C(C)=C1C3(C)C)[C@]1(OC(C)=O)CO[C@@H]1C[C@@H]2O` [Compound 3425], the IC50 is < 1 nM.

On to `CC(=O)O[C@@]12CO[C@@H]1C[C@H](O)[C@@]1(C)C(=O)[C@H](OC(=O)C3CC3)C3=C(C)[C@@H](OC(=O)[C@H](O)[C@@H](NC(=O)c4cccs4)c4cccs4)C[C@@](O)([C@@H](OC(=O)c4ccccc4)[C@H]21)C3(C)C` [Compound 3453], for which the IC50 was < 1 nM.

On to `CCCC(=O)O[C@H]1C(=O)[C@@]2(C)[C@H]([C@H](OC(=O)c3ccccc3)[C@]3(O)C[C@H](OC(=O)[C@H](O)[C@@H](NC(=O)c4ccccc4)C4CC4)C(C)=C1C3(C)C)[C@]1(OC(C)=O)CO[C@@H]1C[C@@H]2O` [Compound 3482], for which the IC50 is < 1 nM.

With `CCC(=O)O[C@H]1C(=O)[C@@]2(C)[C@H]([C@H](OC(=O)c3ccccc3)[C@]3(O)C[C@H](OC(=O)[C@H](O)[C@@H](NC(=O)OC(C)C)c4ccco4)C(C)=C1C3(C)C)[C@]1(OC(C)=O)CO[C@@H]1C[C@@H]2O` [Compound 3522], the IC50 is < 1 nM.

In the case of `CCOC(=O)N[C@@H](c1ccco1)[C@@H](O)C(=O)O[C@H]1C[C@@]2(O)[C@@H](OC(=O)c3ccccc3)[C@@H]3[C@]4(OC(C)=O)CO[C@@H]4C[C@H](O)[C@@]3(C)C(=O)[C@H](OC(=O)CC)C(=C1C)C2(C)C` [Compound 3535], the IC50 is < 1 nM.

As to `CCC(=O)O[C@H]1C(=O)[C@@]2(C)[C@H]([C@H](OC(=O)c3ccccc3)[C@]3(O)C[C@H](OC(=O)[C@H](O)[C@@H](NC(=O)c4cccs4)c4ccco4)C(C)=C1C3(C)C)[C@]1(OC(C)=O)CO[C@@H]1C[C@@H]2O` [Compound 3644], the IC50 was < 1 nM.

As to `CCCC(=O)O[C@H]1C(=O)[C@@]2(C)[C@H]([C@H](OC(=O)c3ccccc3)[C@]3(O)C[C@H](OC(=O)[C@H](O)[C@@H](NC(=O)c4cccs4)c4ccco4)C(C)=C1C3(C)C)[C@]1(OC(C)=O)CO[C@@H]1C[C@@H]2O` [Compound 3656], the IC50 is < 1 nM.

As for `CC(=O)O[C@@]12CO[C@@H]1C[C@H](O)[C@@]1(C)C(=O)[C@H](OC(=O)C3CC3)C3=C(C)[C@@H](OC(=O)[C@H](O)[C@@H](NC(=O)c4cccs4)c4ccco4)C[C@@](O)([C@@H](OC(=O)c4ccccc4)[C@H]21)C3(C)C` [Compound 3663], the IC50 is < 1 nM.

For `CCOC(=O)N[C@@H](c1ccco1)[C@@H](O)C(=O)O[C@H]1C[C@@]2(O)[C@@H](OC(=O)c3ccccc3)[C@@H]3[C@]4(OC(C)=O)CO[C@@H]4C[C@H](O)[C@@]3(C)C(=O)[C@H](OC(=O)C3CC3)C(=C1C)C2(C)C` [Compound 3677], the IC50 was < 1 nM.

For the molecule `CCCC(=O)O[C@H]1C(=O)[C@@]2(C)[C@H]([C@H](OC(=O)c3ccccc3)[C@]3(O)C[C@H](OC(=O)[C@H](O)[C@@H](NC(=O)c4ccco4)c4ccco4)C(C)=C1C3(C)C)[C@]1(OC(C)=O)CO[C@@H]1C[C@@H]2O` [Compound 3686], the IC50 was < 1 nM.

Consider `CCCC(=O)O[C@H]1C(=O)[C@@]2(C)[C@H]([C@H](OC(=O)c3ccccc3)[C@]3(O)C[C@H](OC(=O)[C@H](O)[C@@H](NC(=O)OCC)c4ccco4)C(C)=C1C3(C)C)[C@]1(OC(C)=O)CO[C@@H]1C[C@@H]2O` [Compound 3693], for which the IC50 is < 1 nM.

Turning to `CCC(=O)O[C@H]1C(=O)[C@@]2(C)[C@H]([C@H](OC(=O)c3ccccc3)[C@]3(O)C[C@H](OC(=O)[C@H](O)[C@@H](NC(=O)c4ccco4)c4ccco4)C(C)=C1C3(C)C)[C@]1(OC(C)=O)CO[C@@H]1C[C@@H]2O` [Compound 3818], the IC50 was < 1 nM.

In the case of `CC(=O)O[C@@]12CO[C@@H]1C[C@H](O)[C@@]1(C)C(=O)[C@H](OC(=O)C3CC3)C3=C(C)[C@@H](OC(=O)[C@H](O)[C@@H](NC(=O)OC(C)C)c4ccco4)C[C@@](O)([C@@H](OC(=O)c4ccccc4)[C@H]21)C3(C)C` [Compound 3853], the IC50 is < 1 nM.

In the case of `CC(=O)O[C@@]12CO[C@@H]1C[C@H](O)[C@@]1(C)C(=O)[C@H](OC(=O)C3CC3)C3=C(C)[C@@H](OC(=O)[C@H](O)[C@@H](NC(=O)c4ccco4)c4ccco4)C[C@@](O)([C@@H](OC(=O)c4ccccc4)[C@H]21)C3(C)C` [Compound 3866], the IC50 is < 1 nM.

For the molecule `CCCC(=O)O[C@H]1C(=O)[C@@]2(C)[C@H]([C@H](OC(=O)c3ccccc3)[C@]3(O)C[C@H](OC(=O)[C@H](O)[C@@H](NC(=O)OC(C)C)c4cccs4)C(C)=C1C3(C)C)[C@]1(OC(C)=O)CO[C@@H]1C[C@@H]2O` [Compound 3909], the IC50 is < 1 nM.

Regarding `C/C=C/C(=O)N[C@@H](c1ccco1)[C@@H](O)C(=O)O[C@H]1C[C@@]2(O)[C@@H](OC(=O)c3ccccc3)[C@@H]3[C@]4(OC(C)=O)CO[C@@H]4C[C@H](O)[C@@]3(C)C(=O)[C@H](OC(=O)C3CC3)C(=C1C)C2(C)C` [Compound 3971], the IC50 is < 1 nM.

`C/C=C/C(=O)N[C@@H](c1ccco1)[C@@H](O)C(=O)O[C@H]1C[C@@]2(O)[C@@H](OC(=O)c3ccccc3)[C@@H]3[C@]4(OC(C)=O)CO[C@@H]4C[C@H](O)[C@@]3(C)C(=O)[C@H](OC(=O)CC)C(=C1C)C2(C)C` [Compound 3982]: the IC50 is < 1 nM.

Consider `CCOC(=O)N[C@@H](c1cccs1)[C@@H](O)C(=O)O[C@H]1C[C@@]2(O)[C@@H](OC(=O)c3ccccc3)[C@@H]3[C@]4(OC(C)=O)CO[C@@H]4C[C@H](O)[C@@]3(C)C(=O)[C@H](OC(=O)C3CC3)C(=C1C)C2(C)C` [Compound 4051], for which the IC50 is < 1 nM.

As for `CCCC(=O)N[C@@H](c1ccco1)[C@@H](O)C(=O)O[C@H]1C[C@@]2(O)[C@@H](OC(=O)c3ccccc3)[C@@H]3[C@]4(OC(C)=O)CO[C@@H]4C[C@H](O)[C@@]3(C)C(=O)[C@H](OC(=O)C3CC3)C(=C1C)C2(C)C` [Compound 4062], the IC50 is < 1 nM.

On to `CC(=O)O[C@@]12CO[C@@H]1C[C@H](O)[C@@]1(C)C(=O)[C@H](OC(=O)C3CC3)C3=C(C)[C@@H](OC(=O)[C@H](O)[C@@H](NC(=O)c4cccnc4)c4cccs4)C[C@@](O)([C@@H](OC(=O)c4ccccc4)[C@H]21)C3(C)C` [Compound 4112], for which the IC50 was < 10 nM.

For `CCC(=O)O[C@H]1C(=O)[C@@]2(C)[C@H]([C@H](OC(=O)c3ccccc3)[C@]3(O)C[C@H](OC(=O)[C@H](O)[C@@H](NC(=O)c4cccnc4)c4cccs4)C(C)=C1C3(C)C)[C@]1(OC(C)=O)CO[C@@H]1C[C@@H]2O` [Compound 4121], the IC50 is < 10 nM.

As for `CCCC(=O)O[C@H]1C(=O)[C@@]2(C)[C@H]([C@H](OC(=O)c3ccccc3)[C@]3(O)C[C@H](OC(=O)[C@H](O)[C@@H](NC(=O)c4cccnc4)c4cccs4)C(C)=C1C3(C)C)[C@]1(OC(C)=O)CO[C@@H]1C[C@@H]2O` [Compound 4190], the IC50 is < 10 nM.

With `CCC(=O)O[C@H]1C(=O)[C@@]2(C)[C@H]([C@H](OC(=O)c3ccccc3)[C@]3(O)C[C@H](OC(=O)[C@H](O)[C@@H](NC(=O)c4ccncc4)c4cccs4)C(C)=C1C3(C)C)[C@]1(OC(C)=O)CO[C@@H]1C[C@@H]2O` [Compound 4207], the IC50 was < 10 nM.

On to `CC(=O)O[C@@]12CO[C@@H]1C[C@H](O)[C@@]1(C)C(=O)[C@H](OC(=O)C3CC3)C3=C(C)[C@@H](OC(=O)[C@H](O)[C@@H](NC(=O)C=C(C)C)c4cccs4)C[C@@](O)([C@@H](OC(=O)c4ccccc4)[C@H]21)C3(C)C` [Compound 4329], for which the IC50 is < 1 nM.

Consider `CCC(=O)O[C@H]1C(=O)[C@@]2(C)[C@H]([C@H](OC(=O)c3ccccc3)[C@]3(O)C[C@H](OC(=O)[C@H](O)[C@@H](NC(=O)C=C(C)C)c4cccs4)C(C)=C1C3(C)C)[C@]1(OC(C)=O)CO[C@@H]1C[C@@H]2O` [Compound 4335], for which the IC50 is < 1 nM.

Take `CCCC(=O)O[C@H]1C(=O)[C@@]2(C)[C@H]([C@H](OC(=O)c3ccccc3)[C@]3(O)C[C@H](OC(=O)[C@H](O)[C@@H](NC(=O)C=C(C)C)c4cccs4)C(C)=C1C3(C)C)[C@]1(OC(C)=O)CO[C@@H]1C[C@@H]2O` [Compound 4344]: the IC50 was < 1 nM.

Regarding `CC(=O)O[C@@]12CO[C@@H]1C[C@H](O)[C@@]1(C)C(=O)[C@H](OC(=O)C3CC3)C3=C(C)[C@@H](OC(=O)[C@H](O)[C@@H](NC(=O)OCC(C)C)c4ccoc4)C[C@@](O)([C@@H](OC(=O)c4ccccc4)[C@H]21)C3(C)C` [Compound 4665], the IC50 is < 10 nM.

On to `CCCC(=O)O[C@H]1C(=O)[C@@]2(C)[C@H]([C@H](OC(=O)c3ccccc3)[C@]3(O)C[C@H](OC(=O)[C@H](O)[C@@H](NC(=O)OCC(C)C)c4ccoc4)C(C)=C1C3(C)C)[C@]1(OC(C)=O)CO[C@@H]1C[C@@H]2O` [Compound 4704], for which the IC50 is < 10 nM.

For `CCC(=O)O[C@H]1C(=O)[C@@]2(C)[C@H]([C@H](OC(=O)c3ccccc3)[C@]3(O)C[C@H](OC(=O)[C@H](O)[C@@H](NC(=O)OCC(C)C)c4ccsc4)C(C)=C1C3(C)C)[C@]1(OC(C)=O)CO[C@@H]1C[C@@H]2O` [Compound 4711], the IC50 is < 10 nM.

As to `CC(=O)O[C@@]12CO[C@@H]1C[C@H](O)[C@@]1(C)C(=O)[C@H](OC(=O)C3CC3)C3=C(C)[C@@H](OC(=O)[C@H](O)[C@H](C=C(C)C)NC(=O)OCC(C)C)C[C@@](O)([C@@H](OC(=O)c4ccccc4)[C@H]21)C3(C)C` [Compound 4720], the IC50 was < 10 nM.

For `CCC(=O)O[C@H]1C(=O)[C@@]2(C)[C@H]([C@H](OC(=O)c3ccccc3)[C@]3(O)C[C@H](OC(=O)[C@H](O)[C@@H](NC(=O)OCC(C)C)C4CC4)C(C)=C1C3(C)C)[C@]1(OC(C)=O)CO[C@@H]1C[C@@H]2O` [Compound 4799], the IC50 is < 1 nM.
